Data taken from patent publication US10125134B2 (Mirati Therapeutics, Inc., priority 2016, dated 2018).
Read-outs that look alike come from different tables or passages of the source.

How the values were obtained:
[1] = test system: NCI-H358 cells (express KRas G12C), Phospho-ERK; test: Cellular inhibition of KRas G12C: Phospho-ERK in NCI-H358 cells; assay type: cell-based; settings: Homo sapiens, pERK(Thr202/Tyr204) normalized with GAPDH, NCI-H358 cells, 3 hours, read-out: IC50
Method in brief: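 IC50 derived by 4-parameter fit of GAPDH-normalized pERK(Thr202/Tyr204) signal, as percent of DMSO control. Signal came from in-cell immunodetection with infrared secondaries after 3 h compound exposure of KRas G12C NCI-H358 cells at 0.5% DMSO.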

KRas G12C = KRas G12C (Homo sapiens, UniProt P01116, C118S/C51S/C80L/G12C); test: KRas G12C Modification Assay (LCMS detection of covalent adduct); assay type: binding
Method in brief: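 Cys-light KRas G12C mutant protein incubated with compound in K-Ras assay buffer, reactions quenched at set time points with 25 mM acetic acid and analysed by intact-protein LC/MS on a C-3 column. Deconvoluted mass heights expressed as percent of control (POC) relative to compound-free protein.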

[2] = normalized percent of control, tested at 5 μM concentration for 3 hours

| Structure (SMILES) | POC (KRas G12C; [2]) | IC50 ([1]; NCI-H358, 3 h) | IC50 [1] | POC (KRas G12C; 5 µM) |
| --- | --- | --- | --- | --- |
| C=CC(=O)N1CCN(c2nc(O[C@H](C)CN3CC[C@@H](OC)C3)nc3c2CCN(c2cc(O)cc4ccccc24)C3)CC1 [Example 63, 1-(4-(7-(3-hydroxynaphthalen-1-yl)-2-(((R)-1-((R)-3-methoxypyrrolidin-1-yl)propan-2-yl)oxy)-5,6,7,8-tetrahydropyrido[3,4-d]pyrimidin-4-yl)piperazin-1-yl)prop-2-en-1-one] | C (“C”>50% POC) | > 1000 nM |  |  |
| C=CC(=O)N1CC2(C1)CN(c1nc(OCCN(C)C)nc3c1CCN(c1cc(O)cc4ccccc14)C3)C2 [Example 16, 1-(6-(2-(2-(dimethylamino)ethoxy)-7-(3-hydroxynaphthalen-1-yl)-5,6,7,8-tetrahydropyrido[3,4-d]pyrimidin-4-yl)-2,6-diazaspiro[3.3]heptan-2-yl)prop-2-en-1-one] | C (“C”>50% POC) | > 1000 nM |  |  |
| C=CC(=O)N1CCN(c2nc(O[C@H](CC)CN(C)C)nc3c2CCN(c2cc(O)cc4ccccc24)C3)CC1 [Example 60, (R)-1-(4-(2-((1-(dimethylamino)butan-2-yl)oxy)-7-(3-hydroxynaphthalen-1-yl)-5,6,7,8-tetrahydropyrido[3,4-d]pyrimidin-4-yl)piperazin-1-yl)prop-2-en-1-one] | C (“C”>50% POC) | > 1000 nM |  |  |
| C=CC(=O)N1CCN(c2nc(OC[C@@H]3CCCN3C(C)C)nc3c2CCN(c2cccc4ccccc24)C3)CC1CC#N (stereo partly drawn) [Example 285, 2-[4-[2-[[(2S)-1-isopropylpyrrolidin-2-yl]methoxy]-7-(1-naphthyl)-6,8-dihydro-5H-pyrido[3,4-d]pyrimidin-4-yl]-1-prop-2-enoyl-piperazin-2-yl]acetonitrile] | C (“C”>50% POC) | 0.1 to 1000 nM |  |  |
| C=CC(=O)N1CCN(c2nc(OCCN(C)C)nc3c2CCN(c2cc(O)cc4ccccc24)C3C)CC1 (stereo not drawn) [Example 47, 1-(4-(2-(2-(dimethylamino)ethoxy)-7-(3-hydroxynaphthalen-1-yl)-8-methyl-5,6,7,8-tetrahydropyrido[3,4-d]pyrimidin-4-yl)piperazin-1-yl)prop-2-en-1-one] | C (“C”>50% POC) |  | > 1000 nM |  |
| C=CC(=O)N1CCN(c2nc(OC[C@@H]3CCCN3C)nc3c2CCN(c2c(C)ccc4[nH]ncc24)C3)CC1 [Example 155, (S)-1-(4-(7-(5-methyl-1H-indazol-4-yl)-2-((1-methylpyrrolidin-2-yl)methoxy)-5,6,7,8-tetrahydropyrido[3,4-d]pyrimidin-4-yl)piperazin-1-yl)prop-2-en-1-one] |  |  | 0.1 to 1000 nM | C (key: “A”≤25% POC; “B”>25% POC−≤50% POC; “C”>50% POC) |
| C=CC(=O)N1CCN(c2nc(OC[C@@H]3CCCN3C(C)C)nc3c2CCN(c2cccc4ccccc24)C3)CC1CC#N (stereo partly drawn) [Example 252, 2-[4-[2-[[(2S)-1-isopropylpyrrolidin-2-yl]methoxy]-7-(1-naphthyl)-6,8-dihydro-5H-pyrido[3,4-d]pyrimidin-4-yl]-1-prop-2-enoyl-piperazin-2-yl]acetonitrile] | C (“C”>50% POC) |  | 0.1 to 1000 nM |  |
| C=CC(=O)N1CCN(c2nc(OCCCN3CCOCC3)nc3c2CCN(c2cc(O)cc4cc(C)ccc24)C3)CC1 [Example 43, 1-(4-(7-(3-hydroxy-6-methylnaphthalen-1-yl)-2-(3-morpholinopropoxy)-5,6,7,8-tetrahydropyrido[3,4-d]pyrimidin-4-yl)piperazin-1-yl)prop-2-en-1-one] | C (“C”>50% POC) |  | > 1000 nM |  |
| C=CC(=O)N1CCN(c2nc(OCCN3CCN(C(C)=O)CC3)nc3c2CCN(c2cc(O)cc4ccccc24)C3)CC1 [Example 37, 1-(4-(2-(2-(4-acetylpiperazin-1-yl)ethoxy)-7-(3-hydroxynaphthalen-1-yl)-5,6,7,8-tetrahydropyrido[3,4-d]pyrimidin-4-yl)piperazin-1-yl)prop-2-en-1-one] | C (“C”>50% POC) | > 1000 nM |  |  |

The next lines start with results.

| POC (KRas G12C; [2]) | Structure (SMILES) | IC50 ([1]; NCI-H358, 3 h) | IC50 [1] | POC (KRas G12C; 5 µM) |
| --- | --- | --- | --- | --- |
| C (“C”>50% POC) | C=CC(=O)N1CCN(c2nc(OCCCN3C[C@@H]4C[C@H]3CO4)nc3c2CCN(c2cc(O)cc4ccccc24)C3)CC1CC#N (stereo partly drawn) [Example 153, 2-[4-[7-(3-hydroxy-1-naphthyl)-2-[3-[(1S,4S)-2-oxa-5-azabicyclo[2.2.1]heptan-5-yl]propoxy]-6,8-dihydro-5H-pyrido[3,4-d]pyrimidin-4-yl]-1-prop-2-enoyl-piperazin-2-yl]acetonitrile] |  | 0.1 to 1000 nM |  |
| C (“C”>50% POC) | C=CC(=O)N1CCN(c2nc(OC[C@H]3C[C@H](O)CN3C)nc3c2CCN(c2cccc4ccccc24)C3)C[C@@H]1CC#N [Example 323, 2-[(2S)-4-[2-[[(2R,4S)-4-hydroxy-1-methyl-pyrrolidin-2-yl]methoxy]-7-(1-naphthyl)-6,8-dihydro-5H-pyrido[3,4-d]pyrimidin-4-yl]-1-prop-2-enoyl-piperazin-2-yl]acetonitrile] | 0.1 to 1000 nM |  |  |
| C (“C”>50% POC) | C=CC(=O)N1CCN(c2nc(OC[C@H]3CCCN3C)nc3c2CCN(c2ccc(F)c4ccccc24)C3)C[C@@H]1CC#N [Example 318, 2-[(2S)-4-[7-(4-fluoro-1-naphthyl)-2-[[(2R)-1-methylpyrrolidin-2-yl]methoxy]-6,8-dihydro-5H-pyrido[3,4-d]pyrimidin-4-yl]-1-prop-2-enoyl-piperazin-2-yl]acetonitrile] | 0.1 to 1000 nM |  |  |
| C (“C”>50% POC) | C=CC(=O)N1CCN(c2nc(OC[C@H]3CCCN3C)nc3c2CCN(c2cc(O)cc4ccccc24)C3)CC1CC#N (stereo partly drawn) [Example 178, 2-[4-[7-(3-hydroxy-1-naphthyl)-2-[[(2R)-1-methylpyrrolidin-2-yl]methoxy]-6,8-dihydro-5H-pyrido[3,4-d]pyrimidin-4-yl]-1-prop-2-enoyl-piperazin-2-yl]acetonitrile] | 0.1 to 1000 nM |  |  |
| C (“C”>50% POC) | C=CC(=O)N1CCN(c2nc(OC[C@H]3CCCN3C)nc3c2CCN(c2cccc(Cl)c2C(F)(F)F)C3)C[C@@H]1CC#N [Example 319, 2-((S)-1-acryloyl-4-(7-(3-chloro-2-(trifluoromethyl)phenyl)-2-(((R)-1-methylpyrrolidin-2-yl)methoxy)-5,6,7,8-tetrahydropyrido[3,4-d]pyrimidin-4-yl)piperazin-2-yl)acetonitrile] | 0.1 to 1000 nM |  |  |
| C (“C”>50% POC) | CN1CCC[C@H]1COc1nc2c(c(N3CCN(C(=O)/C=C/CN4CCOCC4)[C@@H](CC#N)C3)n1)CCN(c1cccc(Cl)c1C(F)(F)F)C2 [Example 346, 2-[(2S)-4-[7-[3-chloro-2-(trifluoromethyl)phenyl]-2-[[(2S)-1-methylpyrrolidin-2-yl]methoxy]-6,8-dihydro-5H-pyrido[3,4-d]pyrimidin-4-yl]-1-[(E)-4-morpholinobut-2-enoyl]piperazin-2-yl]acetonitrile] | 0.1 to 1000 nM |  |  |
| C (“C”>50% POC) | C=CC(=O)N1CCN(c2nc(O[C@H](C)CN3CCCC3)nc3c2CCN(c2cc(O)cc4ccccc24)C3)CC1 [Example 120, (R)-1-(4-(7-(3-hydroxynaphthalen-1-yl)-2-((1-(pyrrolidin-1-yl)propan-2-yl)oxy)-5,6,7,8-tetrahydropyrido[3,4-d]pyrimidin-4-yl)piperazin-1-yl)prop-2-en-1-one] | 0.1 to 1000 nM |  |  |
| C (“C”>50% POC) | C=CC(=O)N1CCN(c2nc(OC[C@@H]3CN(C)CCO3)nc3c2CCN(c2cccc4ccccc24)C3)CC1CC#N (stereo partly drawn) [Example 271, 2-(1-acryloyl-4-(2-(((S)-4-methylmorpholin-2-yl)methoxy)-7-(naphthalen-1-yl)-5,6,7,8-tetrahydropyrido[3,4-d]pyrimidin-4-yl)piperazin-2-yl)acetonitrile] | 0.1 to 1000 nM |  |  |
| C (“C”>50% POC) | C=CC(=O)N1CCN(c2nc(OC(CO)CN3CCOCC3)nc3c2CCN(c2cc(O)cc4ccccc24)C3)CC1 (stereo not drawn) [Example 217, 1-(4-(2-((1-hydroxy-3-morpholinopropan-2-yl)oxy)-7-(3-hydroxynaphthalen-1-yl)-5,6,7,8-tetrahydropyrido[3,4-d]pyrimidin-4-yl)piperazin-1-yl)prop-2-en-1-one] | > 1000 nM |  |  |
| C (“C”>50% POC) | C=CC(=O)N1CCN(c2nc(OCC3CN(C)CCN3C)nc3c2CCN(c2cc(O)cc4ccccc24)C3)CC1 (stereo not drawn) [Example 219, 1-(4-(2-((1,4-dimethylpiperazin-2-yl)methoxy)-7-(3-hydroxynaphthalen-1-yl)-5,6,7,8-tetrahydropyrido[3,4-d]pyrimidin-4-yl)piperazin-1-yl)prop-2-en-1-one] | > 1000 nM |  |  |
| C (“C”>50% POC) | C=CC(=O)N1CCN(c2nc(OC[C@@H]3CCCN3C)nc3c2CCN(c2cccc(Cl)c2C)C3)C[C@@H]1CC#N [Example 419, 2-((S)-1-acryloyl-4-(7-(3-chloro-2-methylphenyl)-2-(((S)-1-methylpyrrolidin-2-yl)methoxy)-5,6,7,8-tetrahydropyrido[3,4-d]pyrimidin-4-yl)piperazin-2-yl)acetonitrile] | 0.1 to 1000 nM |  |  |
| C (“C”>50% POC) | C=CC(=O)N1CCN(c2nc(O[C@H](C)CN3CC[C@H](OC)C3)nc3c2CCN(c2cc(O)cc4ccccc24)C3)CC1 [Example 64, 1-(4-(7-(3-hydroxynaphthalen-1-yl)-2-(((R)-1-((S)-3-methoxypyrrolidin-1-yl)propan-2-yl)oxy)-5,6,7,8-tetrahydropyrido[3,4-d]pyrimidin-4-yl)piperazin-1-yl)prop-2-en-1-one] | 0.1 to 1000 nM |  |  |
